Results as given in article PMC12439760 (Bioorganic & medicinal chemistry, 2025).
Several values for one entry are separate records, joined by “and”; a condition that tells them apart may be missing. Identical values can stand only once.

How the values were obtained:
hCB1 receptor [1] = molecular target: T1, hCB1 receptor (Homo sapiens, UniProt P21554); test: hCB1 Gαq16-coupled calcium mobilization assay in CHO-K1 cells; assay type: cell-based; conditions: hCB1 Ca EC50, CHO cells expressing hCB1 and Gαq16, calcium mobilization
hCB2 receptor [2] = molecular target: T2, hCB2 receptor (Homo sapiens, UniProt P34972); test: [3H]CP55940 radioligand displacement, CHO cell membranes overexpressing hCB2; assay type: binding
Human liver microsome = assay type: in vitro ADME; conditions: pooled human liver microsomes, pH 7.4
hCB2 receptor [3] = molecular target: T2, hCB2 receptor; test: hCB2 Gαq16-coupled calcium mobilization assay in CHO-K1 cells; assay type: cell-based; conditions: hCB2 Ca EC50, CHO cells expressing hCB2 and Gαq16, calcium mobilization
hCB1 receptor [4] = molecular target: T1, hCB1 receptor; test: [3H]CP55940 radioligand displacement, CHO cell membranes overexpressing hCB1; assay type: binding
CYP1A2 = CYP1A2 induction assay in HepaRG cells; assay type: cell-based, human; conditions: 10 μM, 24 hrs, % of positive control 50 μM omeprazole
CYP2B6 = CYP2B6 induction assay in HepaRG cells; assay type: cell-based, human; conditions: 10 μM, 24 hrs, % of positive control 1 mM phenobarbital
[5] = Mouse pharmacokinetic study; assay type: in vivo, C57BL/6 mice; conditions: for plasma levels: mice, 3 mg/kg po, data not shown
CYP3A4 = CYP3A4 induction assay in HepaRG cells; assay type: cell-based, human; conditions: 10 μM, 24 hrs, % of positive control 10 μM rifampicin
[6] = test system: CYP3A4, CYP1A2 and CYP2B6; test: Isoform-specific CYP induction assays in HepaRG cells, overall profile; assay type: cell-based, human; conditions: data not shown

T1 sequence (P21554 whole entry): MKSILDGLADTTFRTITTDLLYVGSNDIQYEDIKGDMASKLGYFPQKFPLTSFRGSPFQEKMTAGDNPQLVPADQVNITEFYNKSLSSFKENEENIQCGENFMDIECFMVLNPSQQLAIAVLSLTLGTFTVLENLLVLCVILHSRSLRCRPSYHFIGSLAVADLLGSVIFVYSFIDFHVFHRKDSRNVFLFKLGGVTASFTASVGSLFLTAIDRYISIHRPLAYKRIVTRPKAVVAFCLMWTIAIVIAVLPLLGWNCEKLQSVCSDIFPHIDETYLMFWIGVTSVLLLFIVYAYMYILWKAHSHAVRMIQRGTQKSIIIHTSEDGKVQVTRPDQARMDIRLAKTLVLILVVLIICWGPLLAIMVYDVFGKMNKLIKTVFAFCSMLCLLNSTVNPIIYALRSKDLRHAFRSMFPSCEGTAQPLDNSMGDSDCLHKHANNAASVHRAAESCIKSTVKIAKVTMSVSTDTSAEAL
T2 sequence (P34972 whole entry): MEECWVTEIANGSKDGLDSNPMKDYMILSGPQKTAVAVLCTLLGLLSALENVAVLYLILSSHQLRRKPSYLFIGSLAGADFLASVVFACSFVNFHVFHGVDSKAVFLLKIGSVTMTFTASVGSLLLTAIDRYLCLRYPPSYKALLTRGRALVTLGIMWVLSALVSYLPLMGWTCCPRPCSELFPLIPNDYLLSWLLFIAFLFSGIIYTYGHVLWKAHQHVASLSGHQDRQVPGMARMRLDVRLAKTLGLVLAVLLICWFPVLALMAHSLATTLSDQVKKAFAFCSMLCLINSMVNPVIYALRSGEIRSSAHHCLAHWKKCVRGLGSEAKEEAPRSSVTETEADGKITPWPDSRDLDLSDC

For `CC(C)(NC(=O)c1nn(Cc2ccc(F)cc2)c2ccccc12)C(=O)N1CCC[C@H]1C(N)=O` [Compound 14, N-{1-[(2S)-2-Carbamoylpyrrolidin-1-yl]-2-methyl-1-oxopropan-2-yl}-1-[(4-fluorophenyl)methyl]-1H-indazole-3-carboxamide], the EC50 (hCB1 receptor [1]) was ~20 nM and 20 nM, the Ki (hCB2 receptor [2]) was 6 nM and the half-life at 1 μM (Human liver microsome) was 10.2 h. It also gave a microsomal CLint at 1 μM (Human liver microsome) of 2 µL/min/mg, an EC50 (hCB2 receptor [3]) of 16 ± 1 nM and a Ki (hCB1 receptor [4]) of 4 nM.
For `CC(C)(NC(=O)c1nn(Cc2ccc(F)cc2)c2ccccc12)c1cccc(C(N)=O)c1` [Compound 24, N-[2-(3-Carbamoylphenyl)propan-2-yl]-1-[(4-fluorophenyl)methyl]-1H-indazole-3-carboxamide], the “CYP1A2 Induction (% of Omeprazole)” value (CYP1A2) was under 1%, the EC50 (hCB1 receptor [1]) was 25 ± 5 nM and the “CYP2B6 Induction (% of Phenobarbital)” value (CYP2B6) was under 1%. For the same compound, the half-life at 1 μM (Human liver microsome) was 2.05 h, the microsomal CLint at 1 μM (Human liver microsome) was 5 µL/min/mg and the “Max. Conc. Brain” value ([5]; mouse, IP 2.5 mg/kg, at 0.25 h) was 1.4 ng/mL. For the same compound, the “Max. Conc. Liver” value ([5]; mouse, IP 2.5 mg/kg, at 0.25 h) was 650 ng/mL, the “Max. Conc. Plasma” value ([5]; mouse, IP 2.5 mg/kg, at 0.25 h) was 72 ng/mL and the “CYP3A4 Induction (% of Rifampicin)” value (CYP3A4) was under 1%.
Work on `CC(C)(NC(=O)c1nn(Cc2ccc(F)cc2)c2ccccc12)C1CCCN(C(N)=O)C1` (centres unmarked) [Compound 31, N-[2-(1-Carbamoylpiperidin-3-yl)propan-2-yl]-1-[(4-fluorophenyl)methyl]-1H-indazole-3-carboxamide] yielded a Ki (hCB2 receptor [2]) of 27 nM, a half-life at 1 μM (Human liver microsome) of 0.433 h and an EC50 (hCB2 receptor [3]) of 29 ± 4 nM. The Ki (hCB1 receptor [4]) was 49 nM.
`CC(C)(NC(=O)c1nn(Cc2ccc(F)cc2)c2ccccc12)C1CCCN(CC(N)=O)C1` (centres unmarked) [Compound 34, N-{2-[1-(Carbamoylmethyl)piperidin-3-yl]propan-2-yl}-1-[(4-fluorophenyl)methyl]-1H-indazole-3-carboxamide] gave an EC50 (hCB1 receptor [1]) of 369 ± 57 nM, a half-life at 1 μM (Human liver microsome) of under 0.333 h and an EC50 (hCB2 receptor [3]) of 28 ± 13 nM.
Compound `CC(C)(NC(=O)c1nn(Cc2ccc(C#N)cc2)c2ccccc12)c1cccc(C(N)=O)c1` [Compound 44, N-[2-(3-Carbamoylphenyl)propan-2-yl]-1-[(4-cyanophenyl)methyl]-1H-indazole-3-carboxamide] has an EC50 (hCB1 receptor [1]) of 234 ± 154 nM, a half-life at 1 μM (Human liver microsome) of over 3.33 h and a microsomal CLint at 1 μM (Human liver microsome) of under 5 µL/min/mg. The EC50 (hCB2 receptor [3]) was over 10000 nM.
In the case of `CC(C)(NC(=O)c1nn(Cc2ccc(F)cc2F)c2ccccc12)c1cccc(C(N)=O)c1` [Compound 45, N-[2-(3-Carbamoylphenyl)propan-2-yl]-1-[(2,4-difluorophenyl)methyl]-1H-indazole-3-carboxamide], the “CYP1A2 Induction (% of Omeprazole)” value (CYP1A2) is reported as 20%, the EC50 (hCB1 receptor [1]) is reported as 151 ± 32 nM and the “CYP2B6 Induction (% of Phenobarbital)” value (CYP2B6) is reported as 6%. The half-life at 1 μM (Human liver microsome) was over 3.33 h, the microsomal CLint at 1 μM (Human liver microsome) was under 5 µL/min/mg and the EC50 (hCB2 receptor [3]) was 35 ± 6 nM. The “Max. Conc. Brain” value ([5]; mouse, PO 3 mg/kg, at 0.5 h) was 11 ng/mL, the “Max. Conc. Liver” value ([5]; mouse, PO 3 mg/kg, at 0.5 h) was 920 ng/mL and the “Max. Conc. Plasma” value ([5]; mouse, PO 3 mg/kg, at 0.5 h) was 160 ng/mL. The “Plasma Half-life (HL)” value ([5]; mouse, PO 3 mg/kg, 3 mg/kg) was 7.3 h and the “CYP3A4 Induction (% of Rifampicin)” value (CYP3A4) was 66%.
`CC(C)(NC(=O)c1nn(CCc2ccc(F)cc2)c2ccccc12)c1cccc(C(N)=O)c1` [Compound 46, N-[2-(3-Carbamoylphenyl)propan-2-yl]-1-[2-(4-fluorophenyl)ethyl]-1H-indazole-3-carboxamide] gave an EC50 (hCB1 receptor [1]) of over 10000 nM and an EC50 (hCB2 receptor [3]) of over 10000 nM.
With `CC(C)(NC(=O)c1nn(CC2CCCC2)c2ccccc12)c1cccc(C(N)=O)c1` [Compound 48, N-[2-(3-Carbamoylphenyl)propan-2-yl]-1-(cyclopentylmethyl)-1H-indazole-3-carboxamide] the EC50 (hCB1 receptor [1]) was 893 ± 192 nM, the half-life at 1 μM (Human liver microsome) was 0.367 h and the microsomal CLint at 1 μM (Human liver microsome) was 58 µL/min/mg. For the same compound, the EC50 (hCB2 receptor [3]) was 613 ± 351 nM.
Work on `CC(C)(NC(=O)c1nn(CCC2CCCC2)c2ccccc12)c1cccc(C(N)=O)c1` [Compound 49, N-[2-(3-Carbamoylphenyl)propan-2-yl]-1-(2-cyclopentylethyl)-1H-indazole-3-carboxamide] yielded an EC50 (hCB1 receptor [1]) of 383 ± 163 nM and an EC50 (hCB2 receptor [3]) of 189 ± 10 nM.
With `CC(C)(NC(=O)c1nn(CC2CCC(F)(F)CC2)c2ccccc12)c1cccc(C(N)=O)c1` [Compound 50, N-[2-(3-Carbamoylphenyl)propan-2-yl]-1-[(4,4-difluorocyclohexyl)methyl]-1H-indazole-3-carboxamide] the “CYP induction profile (in words)” value [6] was “profile similar to that of 45”, the Ki (hCB2 receptor [2]) was 3 nM and the half-life at 1 μM (Human liver microsome) was over 3.33 h. The microsomal CLint at 1 μM (Human liver microsome) was under 5 µL/min/mg, the plasma levels [5] was under 30 ng/mL and the Ki (hCB1 receptor [4]) was 2.5 nM.
With `CC(C)(NC(=O)c1nn(CC2CCOCC2)c2ccccc12)c1cccc(C(N)=O)c1` [Compound 51, N-[2-(3-Carbamoylphenyl)propan-2-yl]-1-(oxan-4-ylmethyl)-1H-indazole-3-carboxamide] the “CYP induction profile (in words)” value [6] was “profile similar to that of 45”, the Ki (hCB2 receptor [2]) was 56 nM and the half-life at 1 μM (Human liver microsome) was 3.13 h. The microsomal CLint at 1 μM (Human liver microsome) was 3.3 µL/min/mg, the plasma levels [5] was under 30 ng/mL and the Ki (hCB1 receptor [4]) was 150 nM.
Compound `CCCCCn1nc(C(=O)NC(C)(C)c2cccc(C(N)=O)c2)c2ccccc21` [Compound 52, N-[2-(3-Carbamoylphenyl)propan-2-yl]-1-pentyl-1H-indazole-3-carboxamide] has an EC50 (hCB1 receptor [1]) of 202 ± 16 nM, a half-life at 1 μM (Human liver microsome) of 0.533 h and a microsomal CLint at 1 μM (Human liver microsome) of 19 µL/min/mg. For the same compound, the EC50 (hCB2 receptor [3]) was 175 ± 32 nM.
In the case of `CC(F)(F)CCCn1nc(C(=O)NC(C)(C)c2cccc(C(N)=O)c2)c2ccccc21` [Compound 53, N-[2-(3-Carbamoylphenyl)propan-2-yl]-1-(4,4-difluoropentyl)-1H-indazole-3-carboxamide], the EC50 (hCB1 receptor [1]) is reported as 463 ± 187 nM, the Ki (hCB2 receptor [2]) is reported as 75 nM and the half-life at 1 μM (Human liver microsome) is reported as 2.67 h. It also gave a microsomal CLint at 1 μM (Human liver microsome) of 7.9 µL/min/mg, an EC50 (hCB2 receptor [3]) of 3420 ± 151 nM and a Ki (hCB1 receptor [4]) of 54 nM.
In the case of `CC(C)(NC(=O)c1nn(CCCCCF)c2ccccc12)c1cccc(C(N)=O)c1` [Compound 54, N-[2-(3-Carbamoylphenyl)propan-2-yl]-1-(5-fluoropentyl)-1H-indazole-3-carboxamide], the EC50 (hCB1 receptor [1]) is reported as 84 ± 6 nM, the “CYP induction profile (in words)” value [6] is reported as “profile similar to that of 45” and the half-life at 1 μM (Human liver microsome) is reported as 1.02 h. For the same compound, the microsomal CLint at 1 μM (Human liver microsome) was 10 µL/min/mg and the plasma levels [5] was under 30 ng/mL.
Work on `CC(C)(NC(=O)c1nn(CCCCC(F)(F)F)c2ccccc12)c1cccc(C(N)=O)c1` [Compound 55, N-[2-(3-Carbamoylphenyl)propan-2-yl]-1-(5,5,5-trifluoropentyl)-1H-indazole-3-carboxamide] yielded an EC50 (hCB1 receptor [1]) of 156 ± 35 nM, a half-life at 1 μM (Human liver microsome) of 1.7 h and a microsomal CLint at 1 μM (Human liver microsome) of 6 µL/min/mg. The EC50 (hCB2 receptor [3]) was 341 ± 145 nM.
In the case of `CC(C)(NC(=O)c1nn(CCCCC#N)c2ccccc12)c1cccc(C(N)=O)c1` [Compound 56, N-[2-(3-Carbamoylphenyl)propan-2-yl]-1-(4-cyanobutyl)-1H-indazole-3-carboxamide], the EC50 (hCB1 receptor [1]) is reported as 731 ± 161 nM, the half-life at 1 μM (Human liver microsome) is reported as 3 h and the microsomal CLint at 1 μM (Human liver microsome) is reported as 7 µL/min/mg. For the same compound, the EC50 (hCB2 receptor [3]) was 760 ± 175 nM.
For `CC(C)(C#N)CCCn1nc(C(=O)NC(C)(C)c2cccc(C(N)=O)c2)c2ccccc21` [Compound 57, N-[2-(3-Carbamoylphenyl)propan-2-yl]-1-(4-cyano-4,4-dimethylbutyl)-1H-indazole-3-carboxamide], the EC50 (hCB1 receptor [1]) was 742 ± 50 nM and the EC50 (hCB2 receptor [3]) was over 10000 nM.
For `CCOCCn1nc(C(=O)NC(C)(C)c2cccc(C(N)=O)c2)c2ccccc21` [Compound 58, N-[2-(3-Carbamoylphenyl)propan-2-yl]-1-(2-ethoxyethyl)-1H-indazole-3-carboxamide], the EC50 (hCB1 receptor [1]) was over 10000 nM and the EC50 (hCB2 receptor [3]) was over 10000 nM.
Work on `COCCCn1nc(C(=O)NC(C)(C)c2cccc(C(N)=O)c2)c2ccccc21` [Compound 59, N-[2-(3-Carbamoylphenyl)propan-2-yl]-1-(3-methoxypropyl)-1H-indazole-3-carboxamide] yielded an EC50 (hCB1 receptor [1]) of over 10000 nM and an EC50 (hCB2 receptor [3]) of 2560 ± 492 nM.
